Experiments:
E. coli-vaccinated mice = assay: Survival in E. coli-induced sepsis model; type: in vivo; conditions: E. coli 1×10^9 cells/mouse; 17.5 mg/kg four times from 2 hours after vaccination; compared with PBS
Method: (§1) Male WT ICR mice were used to evaluate a therapeutic effect of Ac-PGP. IFN-γ-deficient mice (kindly provided by Y. K. Kim at the Pohang University of Science and Technology, Pohang, Republic of Korea) were used for mechanism study. All Examples in which animals were used were performed according to the instructions with permission of the Institutional Review Board (IRB) for the care and management of laboratory animals at Dong-A University. In the case of the CLP, mice were anesthetized with pentothal sodium (50 mg/kg, intraperitoneally injected), and abdomen of each mouse was cut along a central cutting line to expose an appendix. Then, an ileocecal valve of the appendix was tied up, both surfaces of the ileocecal valve were punctured twice with a 22-gauge needle (or punctured once to measure a production amount of cytokines), and the abdomen was sutured. Sham CLP mice were treated in the same manner as described above, except that CLP of the appendix was not performed. A survival rate of the mice was monitored every day for 10 days. In the case of the LPS or E. coli model, E. coli and LPS were intraperitoneally injected at concentrations of 1×10^9 cells/mouse and 60 mg/kg, respectively. A survival rate of the mice was monitored once a day for 10 days.
(§2) In another mouse model of sepsis, a therapeutic effect of Ac-PGP was also evaluated.

[1] = test system: mice into which LPS was intraperitoneally injected; assay: Survival in LPS-induced sepsis model; type: in vivo, mouse; conditions: 60 mg/kg LPS intraperitoneally; FIG. 4
Method: as §1, §2

mouse splenocytes = assay: Cytokine release from LPS-stimulated mouse splenocytes (ELISA); type: cell-based
Method: Mouse splenocytes were positioned on an RPMI 1640 medium including 5% FBS in a 96-well plate, and maintained at 37° C. in a 5% CO2 incubator. Thereafter, the splenocytes were stationarily incubated with LPS (100 ng/ml) for 24 hours in the presence or absence of Ac-PGP. After 30 minutes, LPS was added to the cells and collected a cell-free supernatant, and then the supernatant was centrifuged, and TNF-α, IL-6 and IFN-γ were measured using ELISA (BD Biosciences Pharmingen). In regards to the effect of IFN-γ on production of pro-inflammatory cytokines induced by LPS, 5×10^5 cells/ml of the mouse splenocytes were stimulated with 100 ng/ml of LPS in the presence or absence IFN-γ (R&D) (at various concentrations of 1, 10, 100 and 1,000 IU/ml). Amounts of TNF-α and IL-6 were measured 20 hours after stationary incubation using ELISA (BD Biosciences Pharmingen).
An effect of the Ac-PGP on a pro-inflammatory cytokine in a peritoneal fluid by CLP was determined from 4 to 72 hours after the CLP. The CLP induced a remarkable increase in levels of pro-inflammatory cytokines (TNF-α, IL-1β and IL-6) within 24 hours (FIGS. 14 to 16). Injection of the Ac-PGP in a sepsis model by the CLP induced a remarkable change in levels of the cytokines. […] To evaluate an effect of the Ac-PGP on production of the pro-inflammatory cytokines by the LPS, in vitro production of TNF-α and IL-6 by the mouse splenocytes was evaluated. Direct release of the TNF-α and IL-6 from the mouse splenocytes by the LPS was suppressed by in vitro treatment with the Ac-PGP (FIGS. 17 and 18).
Since it was confirmed that the administration of the Ac-PGP improved in vivo production of IFN-γ, a direct effect of the Ac-PGP on production of IFN-γ by splenocytes was examined. […] Also, an effect of IFN-γ on production of the pro-inflammatory cytokines was also examined.

caspase-3 = assay: Caspase-3 activation in splenocytes of CLP mice (immunohistochemistry); type: in vivo, mouse; conditions: FIG. 23
Method: First, a tissue embedded in paraffin was deparaffinized using a typical histological protocol, and performed digoxigenin-dUTP nick end labeling (TUNEL) analysis. Sections were permeated into the Triton X-100 at 4° C. for 2 minutes, and the sections were flooded in terminal deoxynucleotidyl transferase (TdT) and a TUNEL reagent at 37° C. for 60 minutes. A percentage of apoptotic cells (TUNEL-positive cells) was determined by counting 500 splenocytes under an optical microscope. Also, the tissue embedded in paraffin was deparaffinized using a typical histological protocol, and immunohistochemical analysis was performed on the microtomed sections of caspase-3 (Wang J. et al. 2001 Proc. Natl. Acad. Sci. USA 98:4038-43).
The apoptosis of immune cells is associated with the mortality on sepsis. Here, the CLP was proven to remarkably increase apoptosis of splenocytes (FIG. 22). […] Apoptosis of lymphocytes was induced by activation of some major caspases including caspase-3. Therefore, not only the effect of Ac-PGP on activation of caspase-3 but also the effect of CLP activation by caspase-3 were examined (FIG. 23).

human neutrophils = assay: Disinfection activity of human neutrophils against opsonized E. coli; type: cell-based; conditions: FIG. 27
Description: (§3) All kinds of protocols used in human beings were approved by the Institutional Review Board (IRB) at Dong-A University Hospital, and prior consents were obtained from all blood donors. Peripheral blood was collected from healthy donors, and human peripheral monocytes were separated using a Histopaque-1077 gradient. Neutrophils were separated through methods such as dextran precipitation of red blood cell, hypotonic lysis, and usage of lymphocyte isolation medium gradient, as known in the related art (Bae, Y. S. et al. Blood 97, 2854-2862(2001)). The separated human leukocytes were used immediately.
The disinfection activities of the neutrophils were measured according to a method disclosed by Yan et al. (Yan J J et al. 2004 Nat. Med. 10:161-167). The neutrophils were stationarily incubated at 37° C. for an hour on a 13 mm plastic cover slip in a 60 mm plastic culture dish. The non-attached cells were removed by PBS. The attached neutrophils were stationarily incubated for an hour with 10^6 opsonized E. coli cells. The non-phagocytized E. coli cells were washed, and the number of bacteria surviving in the neutrophils was determined before and after the E. coli cells were treated with various concentrations of Ac-PGP or vehicle for an hour. A percentage of the apoptosized bacteria was calculated as follows. 100×(1−CFU Number after stimulus with Ac-PGP/CFU Number before stimulus with Ac-PGP)
Since Ac-PGP strongly promoted the disinfection activity of the mouse neutrophils, a bacteriocidal effect of the Ac-PGP on human neutrophils was examined.

PBMCs = assay: Cytokine production by LPS-stimulated human PBMCs; type: cell-based; conditions: human PBMCs stimulated with LPS
Description: as §3
Next, an effect of the Ac-PGP on production of cytokines by human neutrophils and PBMCs was examined. […] A human CXCR2 chemokine agonist CXCL8 had few effects on production of TNF-α or IFN-γ stimulated with LPS (FIG. 28 to FIG. 31). Therefore, the Ac-PGP could improve both antiseptic activities in leukocytes derived from human beings and mice.

acetylated-Pro-Gly-Pro [Ac-PGP]
death rate (E. coli-vaccinated mice): death rate decreased | mortality [1]: decreased mortality | release of TNF-α by LPS (mouse splenocytes; LPS 100 ng/ml, 24 hours, FIG. 17): suppressed | release of IL-6 by LPS (mouse splenocytes; LPS 100 ng/ml, 24 hours, FIG. 18): suppressed | production of IFN-γ by LPS (mouse splenocytes; LPS-stimulated splenocytes, FIG. 24): increased production of IFN-γ | activation of caspase-3 (caspase-3): remarkably suppressed | killing of opsonified E. coli (human neutrophils; 20 nM): almost completely killed opsonified E. coli | disinfection activity (human neutrophils; 100 nM): remarkably improved the disinfection activity | bacterial killing by the human neutrophils (human neutrophils; various concentrations): dose-dependent effect on bacterial killing | production of TNF-α (PBMCs; FIG. 29): remarkably suppressed | production of IFN-γ (PBMCs; FIG. 31): remarkably improved
